According to patent publication US20260131003A1, “Method and kit for treating skin infections” (Koite Health Oy, priority 2020, published 2026):

Test system: Staphylococcus aureus biofilm
Assay: Monospecies S. aureus biofilm model, light exposure after ICG incubation, CFU counting
Assay type: cell-based
Settings: for reduction in bacterial counts: three-day maturated biofilm
Protocol: Monospecies S. Aureus biofilm model experiments were performed to study the effect of single, or recurring application of dual-light aPDT or its parts during the biofilm formation process. Flat-bottom Nunclon Delta well plates (Thermo Fisher Scientific Inc, US), were used, and the biofilm experiments were divided into different setups based on maturation age and the therapy given.
Applications of both single- and dual-light therapies were scheduled to mimic the daily use of antibacterial light therapy. The total amount of […] as kept unchanged in different treatment protocols, and the concentration of the ICG photosensitizer (if given) were identical. In the first setting, S. aureus biofilm was incubated for either one day or three days, and a single dose of light with ICG was applied at the end of the growth period. In the second setting, the biofilm was incubated for either three days or six days, and a daily dose of light ICG with was applied during incubation. In each setting, the last treatment was followed by plating onto brain heart infusion (BHI)-agar dishes for colony-forming unit (CFU) counting.
Staphylococcus Aureus bacteria were grown for 18 h in an incubator (NuAire DH autoflow 5500, NuAire inc, US), at +36 degrees C, 5% CO2 in BHI broth (Bio-Rad 3564014, Bio-Rad Laboratories, Inc, US). The resulting bacterial suspension was diluted with a 0.9% NaCl solution until an optical density (OD) of 0.46 was reached. The optical density was measured by a spectrophotometer (Varian Cary 100 Bio UV-VIS, Agilent Technologies, Inc, US), and then with a Den 1 McFarland Densitometer (Biosan, Riga, Latvia).
Biofilms were grown in flat-bottom 96-well plates (Thermo Fisher Scientific Inc, US) by placing 100 μl of 0.46 OD S. aureus suspension in each well, with 100 μl of BHI-broth growth medium. The well plates were then incubated in a growth chamber (36° C., 5% CO^2). The BHI-broth medium was changed daily to supply fresh growth medium and to wash away the debris. The change of the medium in each well was performed by removing 100 μl of the medium and replacing it with a similar amount of fresh BHI broth.
Before the light exposure took place, the growth medium was meticulously removed by pipetting and subsequently replaced with an equal amount of indocyanine green solution (Verdye, Diagnostic Green, GmBH), tittered to a concentration of 250 μg/ml. The indocyanine green was left to incubate at room temperature and in the dark for 10 minutes. After this incubation period, the biofilm was washed with a 0.9% NaCl solution. Then, the 0.9% solution of NaCl was added to each well to reach a total volume of 200 μl.
Light exposure was performed using specific, custom-made LED light sources (Lumichip Oy, Espoo, Finland). The exposure time was calculated from the determined light amount and known irradiances, which had been previously measured with a light energy meter (Thorlabs PM 100D with S121C sensor head, Thorlabs Inc, US) and a spectroradiometer (BTS256, Gigahertz-Optik GmbH, Germany), respectively. After the exposure, the BHI broth was changed and the plates were placed in the incubator, or, if the light exposure was final, the biofilm was scraped for CFU counting, as described below. Excitation lights were applied with two single-wave LED light sources with peak intensities at 810 nm or at 405 nm, and with a dual-wave LED light chip simultaneously producing two separate peak intensities at 405 nm and at 810 nm.
Antibacterial photodynamic therapy light exposure was administered at an 810-nm peak wavelength LED array on top of the well plate. The resulting light irradiance was 100 mW/cm^2, and the provided light energy was 100 J/cm^2. Antibacterial blue light was administered at a 405-nm peak wavelength LED array, with a resulting irradiance of 80 mW/cm^2, and resulting light energy of 100 J/cm^2. […]

Q: `CC1(C)C(/C=C/C=C/C=C/C=C2\N(CCCCS(=O)(=O)O)c3ccc4ccccc4c3C2(C)C)=[N+](CCCCS(=O)(=O)[O-])c2ccc3ccccc3c21` [ICG, indocyanine green] was tested. Which “antibacterial effectivity by dual-light relative energy ratio” value (1/4 NIR (810 nm) to 3/4 aBL (405 nm) compared with 1/1 and 3/4 NIR to 1/4 aBL, largest difference in 6-day daily treated biofilm) did it give?
A: most effective

Q: And the “antibacterial efficacy of simultaneous ICG/810-nm aPDT and 405-nm aBL versus single-light aPDT or aBL” value (S. aureus biofilm, overall conclusion)?
A: significantly improved antibacterial efficacy

Q: What about the “antibacterial efficiency of dual-light aPDT versus single light (CFU count)” value (one-day biofilm, single dose, ICG 250 μg/ml, 405 nm + 810 nm simultaneously, total 100 J/cm^2) of the same compound?
A: significantly more efficient than single-light aBL or aPDT

Q: And the “antibacterial effect (CFU count)” value (one-day biofilm, single light dose, ICG 250 μg/ml, all modalities (single-light aPDT 810 nm, dual-light aPDT))?
A: bactericidal

Q: And the “reduction in bacterial counts” value (single exposure of aPDT (ICG 250 μg/ml, 810 nm, 100 J/cm^2))?
A: four

Q: What about the “reduction in bacterial counts” value (single exposure of dual-light aPDT (ICG 250 μg/ml, 405 nm + 810 nm)) of the same compound?
A: four
